Experimental findings from PubChem BioAssay (NCI) are described below.

Experiment in all cases: NCI anticancer screen, dose series, 48 h
For test [1], the system named is OVCAR-8 ovarian.
Test [2] has as its system HCC-2998 colon.
For test [3], the system named is LOX IMVI melanoma.
Test [4] deals with OVCAR-5 ovarian.
In test [5] the test system is NCI-H226 lung.
Test [6] relates to CCRF-CEM leukemia.
In test [7] the test system is ACHN renal.
For test [8], the system named is DU-145 prostate.
Test [9] deals with HOP-92 NSCLC.
Test [10] has as its system 786-0 renal.

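These data come from cells grown in 96-well plates and exposed to compound for 48 hours at five concentrations. TGI marks complete inhibition of growth.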 Some results are limits rather than exact numbers.

For `CNC(=O)N(C)C(=O)c1ccccc1C(=O)N(C)C(=O)NC`, the TGI in [1], in [2], in test [3], in test [4], in test [5] and in test [6] was above 10 µM throughout. Besides, the TGI in [7], in test [8], in test [9] and in test [10] was above 10 µM in each case.

For `CCOC(=O)C1(NC(=O)OC(C)(C)C)CCc2[nH]oc(=O)c2C1` (stereo not given), the TGI in test [1], in test [2], in [3], in test [4], in test [5] and in test [6] was above 100 µM each time. In addition, the TGI in test [7], in test [8], in test [9] and in [10] was above 100 µM in each case.

Turning to `CCOC(=O)c1sc2nc(SC)nc3c2c1NCN3c1ccccc1Cl`, the TGI in test [1], in test [2], in test [3], in [4], in test [5] and in [6] was above 100 µM each time. Also, the TGI in [7] was above 100 µM; in test [8], above 100 µM; in test [9], 57.6 µM; in [10], above 100 µM.

Consider `CCc1nc2cc(F)ccc2[nH]c1=O`, for which the TGI in test [1], in test [2], in [3], in [4], in test [5] and in [6] was above 100 µM each time. Besides, the TGI in test [7], in test [8], in [9] and in test [10] was above 100 µM throughout.
